Laboratory results taken from PubChem BioAssay AID1963837 (Molecular Pharmacology Branch, DTP, NCI, 2024).

Test system: 843126-344-R-J1-PDC complex spheroid viability
Assay: Anticancer human tumor 843126-344-R-J1-PDC patient-derived melanoma cell line growth inhibition [POLQ]
Details: second compound 0.1 µM; first compound 0.1 µM; active compounds read low
How it was run: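 Growth inhibition in 3D: complex spheroids (tumor PDC, HUVEC, MSC) treated with POLQ inhibitor combinations; where Cmax unknown, highest tested concentration 10 microM, except SN-38 at 1 microM.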
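Note: spheroids exposed to drugs for seven days before readout.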

Going from `Cn1ncnc1[C@H]1c2n[nH]c(=O)c3cc(F)cc(c23)N[C@@H]1c1ccc(F)cc1` + Cc1cccc(N(C)C(=O)C2C(O)CCN2c2nc(C)cc(C(F)(F)F)c2C#N)c1 to `O=C(c1cc(Cc2n[nH]c(=O)c3ccccc23)ccc1F)N1CCN(C(=O)C2CC2)CC1` + Cc1cccc(N(C)C(=O)C2C(O)CCN2c2nc(C)cc(C(F)(F)F)c2C#N)c1, the viability, T/C rises from 66% to 98.7%.

Same assay, conditions: second compound 0.1 µM; first compound 0.316 µM; active compounds read low

Compared with `C=CCn1c(=O)c2cnc(Nc3ccc(N4CCN(C)CC4)cc3)nc2n1-c1cccc(C(C)(C)O)n1` + Cc1cccc(N(C)C(=O)C2C(O)CCN2c2nc(C)cc(C(F)(F)F)c2C#N)c1, `O=C(c1cc(Cc2n[nH]c(=O)c3ccccc23)ccc1F)N1CCN(C(=O)C2CC2)CC1` + Cc1cccc(N(C)C(=O)C2C(O)CCN2c2nc(C)cc(C(F)(F)F)c2C#N)c1 is lower in viability, T/C: 95.9% for the first, 92.7% for the second.

First: CCc1c2c(nc3ccc(O)cc13)-c1cc3c(c(=O)n1C2)COC(=O)[C@]3(O)CC + Cc1cccc(N(C)C(=O)C2C(O)CCN2c2nc(C)cc(C(F)(F)F)c2C#N)c1
Second: CNCc1ccc(-c2[nH]c3cc(F)cc4c3c2CCNC4=O)cc1 + Cc1cccc(N(C)C(=O)C2C(O)CCN2c2nc(C)cc(C(F)(F)F)c2C#N)c1
The viability, T/C of the first is lower: 60.8% for the first, 95.7% for the second.

Same assay, conditions: second compound 0.1 µM; first compound 1 µM; active compounds read low

First: C=CCn1c(=O)c2cnc(Nc3ccc(N4CCN(C)CC4)cc3)nc2n1-c1cccc(C(C)(C)O)n1 + Cc1cccc(N(C)C(=O)C2C(O)CCN2c2nc(C)cc(C(F)(F)F)c2C#N)c1
Second: O=C(c1cc(Cc2n[nH]c(=O)c3ccccc23)ccc1F)N1CCN(C(=O)C2CC2)CC1 + Cc1cccc(N(C)C(=O)C2C(O)CCN2c2nc(C)cc(C(F)(F)F)c2C#N)c1
The viability, T/C of the first is lower: 80.8% for the first, 90.9% for the second.

First: CCc1c2c(nc3ccc(O)cc13)-c1cc3c(c(=O)n1C2)COC(=O)[C@]3(O)CC + Cc1cccc(N(C)C(=O)C2C(O)CCN2c2nc(C)cc(C(F)(F)F)c2C#N)c1
Second: CNCc1ccc(-c2[nH]c3cc(F)cc4c3c2CCNC4=O)cc1 + Cc1cccc(N(C)C(=O)C2C(O)CCN2c2nc(C)cc(C(F)(F)F)c2C#N)c1
The viability, T/C of the first is lower: 42.8% for the first, 73.5% for the second.

Same assay, conditions: second compound 0.1 µM; first compound 3.16 µM; active compounds read low

Compared with `CNCc1ccc(-c2[nH]c3cc(F)cc4c3c2CCNC4=O)cc1` + Cc1cccc(N(C)C(=O)C2C(O)CCN2c2nc(C)cc(C(F)(F)F)c2C#N)c1, `O=C(c1cc(Cc2n[nH]c(=O)c3ccccc23)ccc1F)N1CCN(C(=O)C2CC2)CC1` + Cc1cccc(N(C)C(=O)C2C(O)CCN2c2nc(C)cc(C(F)(F)F)c2C#N)c1 is higher in viability, T/C: 87.3% for the first, 93.7% for the second.

Same assay, conditions: second compound 0.1 µM; first compound 10 µM; active compounds read low

Compared with `CNCc1ccc(-c2[nH]c3cc(F)cc4c3c2CCNC4=O)cc1` + Cc1cccc(N(C)C(=O)C2C(O)CCN2c2nc(C)cc(C(F)(F)F)c2C#N)c1, `O=C(c1cc(Cc2n[nH]c(=O)c3ccccc23)ccc1F)N1CCN(C(=O)C2CC2)CC1` + Cc1cccc(N(C)C(=O)C2C(O)CCN2c2nc(C)cc(C(F)(F)F)c2C#N)c1 is higher in viability, T/C: 64.5% for the first, 67.1% for the second.

Same assay, conditions: second compound 0.316 µM; first compound 0.000316 µM; active compounds read low

Going from `CC[C@@]1(O)C(=O)OCc2c1cc1n(c2=O)Cc2cc3c(CN(C)C)c(O)ccc3nc2-1` + Cc1cccc(N(C)C(=O)C2C(O)CCN2c2nc(C)cc(C(F)(F)F)c2C#N)c1 to `Cn1ncnc1[C@H]1c2n[nH]c(=O)c3cc(F)cc(c23)N[C@@H]1c1ccc(F)cc1` + Cc1cccc(N(C)C(=O)C2C(O)CCN2c2nc(C)cc(C(F)(F)F)c2C#N)c1, the viability, T/C falls from 106% to 82.8%.

Same assay, conditions: second compound 0.316 µM; first compound 0.001 µM; active compounds read low

Going from `CC[C@@]1(O)C(=O)OCc2c1cc1n(c2=O)Cc2cc3c(CN(C)C)c(O)ccc3nc2-1` + Cc1cccc(N(C)C(=O)C2C(O)CCN2c2nc(C)cc(C(F)(F)F)c2C#N)c1 to `Cn1ncnc1[C@H]1c2n[nH]c(=O)c3cc(F)cc(c23)N[C@@H]1c1ccc(F)cc1` + Cc1cccc(N(C)C(=O)C2C(O)CCN2c2nc(C)cc(C(F)(F)F)c2C#N)c1, the viability, T/C falls from 102% to 82.5%.

Same assay, conditions: second compound 0.316 µM; first compound 0.00316 µM; active compounds read low

Compared with `C=CCn1c(=O)c2cnc(Nc3ccc(N4CCN(C)CC4)cc3)nc2n1-c1cccc(C(C)(C)O)n1` + Cc1cccc(N(C)C(=O)C2C(O)CCN2c2nc(C)cc(C(F)(F)F)c2C#N)c1, `CCc1c2c(nc3ccc(O)cc13)-c1cc3c(c(=O)n1C2)COC(=O)[C@]3(O)CC` + Cc1cccc(N(C)C(=O)C2C(O)CCN2c2nc(C)cc(C(F)(F)F)c2C#N)c1 is lower in viability, T/C: 101% for the first, 70.5% for the second.

Going from `CC[C@@]1(O)C(=O)OCc2c1cc1n(c2=O)Cc2cc3c(CN(C)C)c(O)ccc3nc2-1` + Cc1cccc(N(C)C(=O)C2C(O)CCN2c2nc(C)cc(C(F)(F)F)c2C#N)c1 to `Cn1ncnc1[C@H]1c2n[nH]c(=O)c3cc(F)cc(c23)N[C@@H]1c1ccc(F)cc1` + Cc1cccc(N(C)C(=O)C2C(O)CCN2c2nc(C)cc(C(F)(F)F)c2C#N)c1, the viability, T/C falls from 93.1% to 89.5%.

Same assay, conditions: second compound 0.316 µM; first compound 0.01 µM; active compounds read low

Compared with `C=CCn1c(=O)c2cnc(Nc3ccc(N4CCN(C)CC4)cc3)nc2n1-c1cccc(C(C)(C)O)n1` + Cc1cccc(N(C)C(=O)C2C(O)CCN2c2nc(C)cc(C(F)(F)F)c2C#N)c1, `CCc1c2c(nc3ccc(O)cc13)-c1cc3c(c(=O)n1C2)COC(=O)[C@]3(O)CC` + Cc1cccc(N(C)C(=O)C2C(O)CCN2c2nc(C)cc(C(F)(F)F)c2C#N)c1 is lower in viability, T/C: 103% for the first, 61.6% for the second.

Going from `CC[C@@]1(O)C(=O)OCc2c1cc1n(c2=O)Cc2cc3c(CN(C)C)c(O)ccc3nc2-1` + Cc1cccc(N(C)C(=O)C2C(O)CCN2c2nc(C)cc(C(F)(F)F)c2C#N)c1 to `Cn1ncnc1[C@H]1c2n[nH]c(=O)c3cc(F)cc(c23)N[C@@H]1c1ccc(F)cc1` + Cc1cccc(N(C)C(=O)C2C(O)CCN2c2nc(C)cc(C(F)(F)F)c2C#N)c1, the viability, T/C rises from 83.9% to 86.3%.

Same assay, conditions: second compound 0.316 µM; first compound 0.0316 µM; active compounds read low

Going from `C=CCn1c(=O)c2cnc(Nc3ccc(N4CCN(C)CC4)cc3)nc2n1-c1cccc(C(C)(C)O)n1` + Cc1cccc(N(C)C(=O)C2C(O)CCN2c2nc(C)cc(C(F)(F)F)c2C#N)c1 to `O=C(c1cc(Cc2n[nH]c(=O)c3ccccc23)ccc1F)N1CCN(C(=O)C2CC2)CC1` + Cc1cccc(N(C)C(=O)C2C(O)CCN2c2nc(C)cc(C(F)(F)F)c2C#N)c1, the viability, T/C falls from 108% to 95.7%.

Compared with `CC[C@@]1(O)C(=O)OCc2c1cc1n(c2=O)Cc2cc3c(CN(C)C)c(O)ccc3nc2-1` + Cc1cccc(N(C)C(=O)C2C(O)CCN2c2nc(C)cc(C(F)(F)F)c2C#N)c1, `CCc1c2c(nc3ccc(O)cc13)-c1cc3c(c(=O)n1C2)COC(=O)[C@]3(O)CC` + Cc1cccc(N(C)C(=O)C2C(O)CCN2c2nc(C)cc(C(F)(F)F)c2C#N)c1 is lower in viability, T/C: 70.7% for the first, 58.3% for the second.

Compared with `CNCc1ccc(-c2[nH]c3cc(F)cc4c3c2CCNC4=O)cc1` + Cc1cccc(N(C)C(=O)C2C(O)CCN2c2nc(C)cc(C(F)(F)F)c2C#N)c1, `Cn1ncnc1[C@H]1c2n[nH]c(=O)c3cc(F)cc(c23)N[C@@H]1c1ccc(F)cc1` + Cc1cccc(N(C)C(=O)C2C(O)CCN2c2nc(C)cc(C(F)(F)F)c2C#N)c1 is higher in viability, T/C: 85.3% for the first, 88.7% for the second.
